Results on 17 molecules are retold here after patent US20260297105A1, “RAF-MEK PROTEIN COMPLEX MODULATORS AND METHODS OF USE THEREOF” (GANDEEVA THERAPEUTICS, INC., priority 2023, published 2026).

The target of one assay is T1, MEK1 (Homo sapiens, UniProt Q02750).
T1 construct: purchased SignalChem M02-14H
The assay is described as follows: MEK1 kinase cascade assay (ADP-Glo), inhibition of MEK1 kinase activity. To be noted: 25 nM BRAF, 6.25 nM MEK1, 0.5 μM ERK, 1 mM ATP; 20 min preincubation, 1 hr at 25° C.; read-out: BRAF ADP Glo kinase assay V3 (IC50). It is filed as biochemical. In outline:
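Compounds were preincubated 20 mins at 25° C with 25 nM BRAF(445-723) in 10 mM HEPES pH 7.5, 5 mM MgCl2, 2 mM CHAPS, 1 mM DTT, then 6.25 nM MEK1, 0.5 μM ERK1 and 1 mM ATP were added for 1 hr at 25° C, with 1% DMSO. ADP-Glo luminescence was normalized to DMSO and 1 μM Trametinib; IC50 came from 4-parameter fits of duplicates.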

The test system of the next assay is BRAF-MEK1. Put plainly: BRAF-MEK TR-FRET assay, stabilization of MEK1 and BRAF interaction. It is filed as binding. The following applies: 4 nM BRAF, 10 nM MEK, 100 μM ATP, 1 hr at 25° C., read-out: BRAF-MEK TR-FRET Assay (EC50, fold stabilization). In outline: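 His-MEK1 (full-length, E. coli) at 10 nM with GST-BRAF at 4 nM, 1 h at 25° C in pH 7.5 Tris buffer with 5 mM MgCl2 and 100 μM ATP; anti-His-Tb/anti-GST-XL665 added for 1 h more. 665/620 FRET ratio over DMSO gives fold stabilization; EC50 from 4-parameter fit, duplicate wells.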

The subject of the next assay is NCI-H292 cells. The assay is described as follows: Cell viability assay (CellTiter-Glo), NCI-H292. The following applies: Homo sapiens, 72 hrs, read-out: Cell Viability Assay: IC50 Determination NCI-H292. It is filed as cell-based. As for the experimental part: Cell culture: HCTI 16, HT-29, and NCI-H292 cells were acquired from American Type Culture Collection (ATCC). HCT116 and HT-29 cells were maintained in ATCC-formulated McCoy's 5a Medium Modified supplemented with 10% fetal bovine serum, NCI-H292 cells were cultured in ATCC formulated RPMI-1640 supplemented with 10% fetal bovine serum. All cells were maintained at 37° C., 5% CO2.
Efficacy of exemplary compounds in inhibition of cell viability: HCT116 and HT-29 cells were plated at 4,000 cells per well and NCI-H292 cells were plated at 2,000 cells per well in their respective media in 384-well white, TC-treated plates (Corning). After 24 hours of incubation, the cells were treated with vehicle (DMSO) or test compounds (0.1% DMSO in final volume) for 72 hrs. The plate was equilibrated at room temperature for 10 mins followed by addition of a 1:1 volume of CellTiter-Glo® reagent (Promega). The contents were mixed for 2 mins on an orbital shaker to induce lysis. The plate was incubated at room temperature for 10 mins to stabilize luminescent signal before measuring luminescence on a Cytation5 microplate reader (Agilent). % inhibition as a function of compound concentration from 3 replicate wells was fit with a 4-parameter logistic curve using GraphPad Prism or CDD Vault to derive IC50 values.
In this table, for the BRAF ADP Glo kinase assay, “A” indicates IC50 of less than 5 nM; “B” indicates IC50 of between 5 nM to 50 nM; and “C” indicates IC50 of between 50 nM to 500 nM. “D” indicates IC50 of greater than 500 nM. For the BRAF-MEK TR-FRET assay, “A” indicates EC50 of less than 50 nM; “B” indicates EC50 of between 50 nM to 200 nM; and “C” indicates EC50 of between 200 nM to 1 μM. “D′” indicates EC50 of greater than 1 μM. For the AlphaLisa P-ERK assay, “A” indicates IC50 of less than 1 nM; “B” indicates IC50 of between 1 nM to 10 nM; and “C” indicates IC50 of between 10 nM to 100 nM. “D” indicates IC50 of greater than 100 nM. For the cell viability assay, “A” indicates IC50 of less than 1 nM; “B” indicates IC50 of between 1 nM to 10 nM; and “C” indicates IC50 of between 10 nM to 100 nM. “D” indicates IC50 of greater than 100 nM.

The structures appear in SMILES notation. Where two headings read alike, the source gives them in different places. A value given as a limit tells only on which side of the number the result lay.

T1 sequence (Q02750 whole entry): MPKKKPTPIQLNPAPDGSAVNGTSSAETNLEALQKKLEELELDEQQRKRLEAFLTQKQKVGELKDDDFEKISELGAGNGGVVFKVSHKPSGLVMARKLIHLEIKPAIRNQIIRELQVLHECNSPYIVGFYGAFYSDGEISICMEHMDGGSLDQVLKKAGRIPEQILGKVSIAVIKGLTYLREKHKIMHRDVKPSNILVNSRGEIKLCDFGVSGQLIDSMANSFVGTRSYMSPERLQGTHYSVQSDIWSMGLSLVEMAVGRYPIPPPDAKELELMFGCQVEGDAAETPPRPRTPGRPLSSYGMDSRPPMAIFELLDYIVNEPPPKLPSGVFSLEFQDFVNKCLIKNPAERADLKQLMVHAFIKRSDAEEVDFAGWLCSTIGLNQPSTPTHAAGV
T1 sequence (P15056 445-723 partner limits assumed): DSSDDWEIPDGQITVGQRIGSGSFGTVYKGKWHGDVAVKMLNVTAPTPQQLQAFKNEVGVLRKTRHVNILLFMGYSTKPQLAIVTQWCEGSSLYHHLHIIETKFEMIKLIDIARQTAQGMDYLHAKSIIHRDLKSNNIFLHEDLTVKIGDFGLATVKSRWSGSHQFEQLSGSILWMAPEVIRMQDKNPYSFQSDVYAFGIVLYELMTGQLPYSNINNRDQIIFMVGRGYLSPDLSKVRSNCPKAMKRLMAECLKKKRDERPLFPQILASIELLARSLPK

Consider `CNS(=O)(=O)Nc1cccc(CN2Cc3ccc(Oc4ncccn4)c(F)c3OC2=O)c1F` [Compound 123, 8-fluoro-3-{[2-fluoro-3-(methylaminosulfonylamino)phenyl]methyl}-7-(2-pyrimidinyloxy)-3,4-dihydro-2H-1,3-benzoxazin-2-one], for which the results for the IC50 on MEK1 and in the assay on NCI-H292 cells were 5 to 50 nM and 10 to 100 nM, respectively. Further, the EC50 with BRAF-MEK1 was 200 to 1000 nM.
`CN(C)C(=O)Oc1ccc2c(c1)OC(=O)N(Cc1cccc(NS(=O)(=O)C3CC3)c1F)C2` [Compound 125, 3-(3-(cyclopropanesulfonamido)-2-fluorobenzyl)-2-oxo-3,4-dihydro-2H-benzo[e][1,3]oxazin-7-yl dimethylcarbamate]: the results for the IC50 at MEK1 and in the assay with NCI-H292 cells were 5 to 50 nM and 10 to 100 nM, respectively. In the assay with BRAF-MEK1, the EC50 lay within 200 to 1000 nM.
Take `CNS(=O)(=O)Nc1cccc(CN2C(=O)Oc3cc(Oc4ncco4)c(F)cc3C23COC3)c1F` [Compound 73]: the IC50 on MEK1 lay within 5 to 50 nM; in the assay on NCI-H292 cells, 1 to 10 nM.
Regarding `CNS(=O)(=O)Nc1cccc(CN2C(=O)Oc3cc(Oc4ncco4)ccc3[C@H]2C)c1F` (single isomer, unassigned) [Compound 79, (R)-3-({2-fluoro-3-(methylsulfamoyl)amino]phenyl}methyl)-4-methyl-7-(1,3-oxazol-2-yloxy)-3,4-dihydro-2H-1,3-benzoxazin-2-one or (S)-3-({2-fluoro-3-(methylsulfamoyl)amino]phenyl}methyl)-4-methyl-7-(1,3-oxazol-2-yloxy)-3,4-dihydro-2H-1,3-benzoxazin-2-one], the IC50 at MEK1 lay within 5 to 50 nM; with NCI-H292 cells it was 10 to 100 nM.
The matching figures for `CNS(=O)(=O)Nc1cccc(CN2C(=O)Oc3cc(Oc4ncco4)ccc3C2(C)C)c1F` [Compound 74, 3-({2-fluoro-3-[(methylsulfamoyl)amino]phenyl}methyl)-4,4-dimethyl-7-(1,3-oxazol-2-yloxy)-3,4-dihydro-2H-1,3-benzoxazin-2-one]: 5 to 50 nM and 1 to 10 nM.
For `CNS(=O)(=O)Nc1cccc(CN2C(=O)Oc3cc(OC(=O)N(C)C)c(Cl)cc3[C@H]2C)c1F` [Compound 107, (R)-6-chloro-7-(dimethylaminocarbonyloxy)-3-{[2-fluoro-3-(methylaminosulfonylamino)phenyl]methyl}-4-methyl-3,4-dihydro-2H-1,3-benzoxazin-2-one], the IC50 on MEK1 fell in the range of 5 to 50 nM. Further, the EC50 with BRAF-MEK1 lay in the range of 200 to 1000 nM.
The like results for `COC1CCN(S(=O)(=O)Nc2cccc(CN3Cc4ccc(OC(=O)N(C)C)cc4OC3=O)c2F)C1` (stereo not drawn) [Compound 100, 3-(2-fluoro-3-((3-methoxypyrrolidine)-1-sulfonamido)benzyl)-2-oxo-3,4-dihydro-2H-benzo[e][1,3]oxazin-7-yl dimethylcarbamate] were, in that order, 5 to 50 nM and 200 to 1000 nM.
Regarding `CNS(=O)(=O)Nc1nccc(CN2C(=O)Oc3cc(Oc4cccnn4)cnc3[C@H]2C)c1F` (stereo in doubt) [Compound 192, 3-{[3-fluoro-2-(methylaminosulfonylamino)-4 pyridyl]methyl}-4-methyl-7-(3-pyridazinyloxy)-3,4-dihydro-2H-1-oxa-3,5 diazanaphthalen-2-one], on MEK1, the IC50 lay in the range of 5 to 50 nM. Besides, the EC50 in the assay on BRAF-MEK1 (60 min) fell in the range of 200 to 1000 nM.
Turning to `CNS(=O)(=O)Nc1cccc(CN2C(=O)Oc3cc(Oc4cccnn4)cnc3C23CC3)c1F` [Compound 201, 2′-{[2-fluoro-3-(methylaminosulfonylamino)phenyl]methyl}-6′-(3-pyridazinyloxy)-2′H,3′H-4′-oxa-2′,8′-diazaspiro[cyclopropane-1,1′-naphthalen]-3′-one], the IC50 at MEK1 is less than 5 nM. For the same molecule, the EC50 in the assay on BRAF-MEK1 is less than 50 nM.
In the case of `CNS(=O)(=O)Nc1cccc(CN2Cc3ccc(OC(=O)N(C)C)cc3OC2=O)c1F` [Compound 156, 3-(2-fluoro-3-((N-methylsulfamoyl)amino)benzyl)-2-oxo-3,4-dihydro-2H-benzo[e][1,3]oxazin-7-yl dimethylcarbamate], on MEK1, the IC50 lay in the range of 5 to 50 nM. Further, the EC50 in the assay with BRAF-MEK1 fell in the range of 200 to 1000 nM.
With `CNS(=O)(=O)Nc1cccc(CN2C(=O)Oc3cc(Oc4ncco4)c(F)cc3C2C)c1F` (single isomer, unassigned) [Compound 85, (R)-6-fluoro-3-({2-fluoro-3-(methylsulfamoyl)amino]phenyl}methyl)-4-methyl-7-(1,3-oxazol-2-yloxy)-3,4-dihydro-2H-1,3-benzoxazin-2-one or (S)-6-fluoro-3-({2-fluoro-3-(methylsulfamoyl)amino]phenyl}methyl)-4-methyl-7-(1,3-oxazol-2-yloxy)-3,4-dihydro-2H-1,3-benzoxazin-2-one], at MEK1, the IC50 was 5 to 50 nM. Further, the EC50 in the assay on BRAF-MEK1 lay in the range of 200 to 1000 nM.
The matching figures for `CNS(=O)(=O)Nc1cccc(CN2C(=O)Oc3c(ccc(Oc4ncco4)c3F)[C@@H]2C)c1F` (single isomer, unassigned) [Compound 89, (S)-8-fluoro-3-({2-fluoro-3-(methylsulfamoyl)amino]phenyl}methyl)-4-methyl-7-(1,3-oxazol-2-yloxy)-3,4-dihydro-2H-1,3-benzoxazin-2-one or (R)-8-fluoro-3-({2-fluoro-3-(methylsulfamoyl)amino]phenyl}methyl)-4-methyl-7-(1,3-oxazol-2-yloxy)-3,4-dihydro-2H-1,3-benzoxazin-2-one]: less than 5 nM and 200 to 1000 nM.
For the molecule `CNS(=O)(=O)Nc1nccc(CN2C(=O)Oc3c(ccc(Oc4ncco4)c3F)C23CCC3)c1F` [Compound 173, 8-fluoro-3-{[3-fluoro-2-(methylaminosulfonylamino)-4-pyridyl]methyl}-7-(1,3-oxazol-2-yloxy)-2H,3H-spiro[1,3-benzoxazine-4,1′-cyclobutan]-2-one], at MEK1, the IC50 is 5 to 50 nM. For the same molecule, the EC50 with BRAF-MEK1 is less than 50 nM.
The matching figures for `CNS(=O)(=O)Nc1cccc(CN2C(=O)Oc3cc(OC(=O)N(C)C)ccc3C23CN(C)C3)c1F` [Compound 48, 3′-(2-fluoro-3-((N-methylsulfamoyl)amino)benzyl)-1-methyl-2′-oxo-2′,3′-dihydrospiro[azetidine-3,4′-benzo[e][1,3]oxazin]-7′-yl dimethylcarbamate]: 5 to 50 nM and 200 to 1000 nM.
The matching figures for `CN(C)C(=O)Oc1ccc2c(c1)OC(=O)N(Cc1cccc(NS(=O)(=O)N3CC4(COC4)C3)c1F)C2` [Compound 109, 3-(2-fluoro-3-(2-oxa-6-azaspiro[3.3]heptane-6-sulfonamido)benzyl)-2-oxo-3,4-dihydro-2H-benzo[e][1,3]oxazin-7-yl dimethylcarbamate]: 5 to 50 nM and 200 to 1000 nM.
The matching figures for `CNS(=O)(=O)Nc1nccc(CN2C(=O)Oc3cc(Oc4cccnn4)ccc3C2(C)C)c1F` [Compound 32, 3-({3-fluoro-2-[(methylsulfamoyl)amino]pyridin-4-yl}methyl)-4,4-dimethyl-7-(pyridazin-3-yloxy)-3,4-dihydro-2H-1,3-benzoxazin-2-one]: 5 to 50 nM and 200 to 1000 nM.
For `CNS(=O)(=O)Nc1cc(F)cc(CN2Cc3ccc(Oc4cccnn4)cc3OC2=O)c1F` [Compound 200, 3-{[2,5-difluoro-3-(methylaminosulfonylamino)phenyl]methyl}-7-(3-pyridazinyloxy)-3,4-dihydro-2H-1,3-benzoxazin-2-one], the IC50 on MEK1 is 5 to 50 nM. Further, the EC50 in the assay with BRAF-MEK1 lay in the range of 200 to 1000 nM.
